Values of other authors, collected in patent US20160339123A1, “POLYBUTYLACRYLATE-BASED NANOCOMPOSITE PHOTOACOUSTIC IMAGING AGENT AND A PREPARATION METHOD THEREOF” (Wenzhou Institute of Biomaterials and Engineering, priority 2015, published 2016).

Settings: near infrared region

| absorption peak [nm] | Compound |
| --- | --- |
| ~780 | CC1(C)C(/C=C/C=C/C=C/C=C2\N(CCCCS(=O)(=O)O)c3ccc4ccccc4c3C2(C)C)=[N+](CCCCS(=O)(=O)[O-])c2ccc3ccccc3c21 [indocyanine green] |
| ~664 | CN(C)c1ccc2nc3ccc(=[N+](C)C)cc-3sc2c1 [methylene blue] |
